Patent publication US9193687B2 (priority 2007, dated 2015)
Several values for one entry are separate records, joined by “and”; a condition that tells them apart may be missing. Equal entries are not always repeated.

Experiments:
[1] = system: CCRF-CEM human lymphoblastic leukemia cells; assay: cells; details: 72 h, read-out: Cytotoxicity IC50, CCRF-CEM
[2] = system: Human colon carcinoma HCT-116 cells; assay: cells; details: HCT-116, 72 h, read-out: Cytotoxicity IC50, HCT-116
[3] = system: Human mammary carcinoma (MX-1) tumor cells; assay: In vitro cytotoxicity, SRB assay, 72-hr incubation; details: Homo sapiens, 72 h, read-out: Cytotoxicity IC50, MX-1
CCRF-CEM/Taxol = assay: In vitro cytotoxicity, XTT assay, taxol-resistant subline; details: Homo sapiens, CCRF-CEM, 72 h, read-out: Cytotoxicity IC50, CCRF-CEM/Taxol
[4] = system: human mammary carcinoma MX-1 xenograft; assay: Antitumor therapeutic effect against MX-1 xenograft in nude mice; assay type: in vivo; details: for Therapeutic effect: complete tumor remission (CR), mice with CR/total and day / Maximal body-weight loss (%) / Therapeutic effect: tumor relapse: i.v. injection; for Therapeutic effect: complete tumor remission (CR), mice with CR/total and day: treatment from Day 8, dose and schedule per compound as in Table 3 (30-150 mg/kg); for Maximal body-weight loss (%) / Therapeutic effect: tumor relapse: dose and schedule per compound as in Table 3; for Remark (dose tolerability): BO-1053 70 mg/kg Q2Dx5, BO-1063 and BO-1065 100 mg/kg QDx3, i.v.
Procedure: Athymic nude mice bearing the nu/nu gene were obtained from NCI, Frederick, Md. and used for all human tumor xenografts. Male nude mice 6 weeks or older weighing 20-24 g or more were used. Compounds were administered via the tail vein for i.v. injection or infusion as described previously.^64 A typical formulation for chemotherapeutic studies for each drug was dissolved in DSMO to make a 25 mg/ml fresh solution, 0.4 ml of this solution was mixed with 0.3 ml of Tween 80, plus 1.3 ml to make 2 ml of 5 mg/ml solution. Bolus injection volume was 0.1-0.2 ml per mouse. Tumor volume was assessed by measuring length×width×height (or width) by using a caliper. For tumor-bearing nude mice during the course of the experiment, the body weight refers to total weight minus the weight of the tumor. All animal studies were conducted in accordance with the guidelines for the National Institute of Health Guide for the Care and Use of Animals and the protocol approved by the Institutional Animal Care and Use Committee.
The therapeutic effects of a drug against human tumor xenografts in nude mice, under the optimal therapeutic conditions but without any lethality due to drug toxicity, the following degrees of therapeutic effects are defined and calculated by the following formula: […]
where • T0 is the initial tumor size (in mm^3) at beginning of drug treatment; • Tc is tumor size of untreated control group on a given date; and • Tx is tumor size of the drug treated group on a given date.
[formula] • Tumor disappearance (complete remission or CR) is defined by the effect where • [Tx=0] for a period of time (in days) for a proportion of animals (NCR/N), where • N is the total number of animals in the group, and NCR is the number of mice in the group that achieved CR. • Tumor relapse is quantitatively calculated by • [The Day tumor relapsed (Drelp)—The Day CR achieved (DCR)] (Eq. 3) for a proportion of animals (Nrelp/N) where N is the total number of animals in the group, and Nrelp is the number of the mice in the group that relapsed. • The log cell kill (LCK) of the tumor tissue after a given chemotherapy that reached CR is estimated by: LCK=log [2^(Tumor remission in days/Tumor doubling time in days)] (Eq. 4)
Athymic nude mice bearing the nu/nu gene were used for human breast tumor MX-1 xenograft (FIGS. 3 and 4) and human brain glioma U87 GM xenograft (FIG. 5). Nude mice were obtained from National Cancer Institute, Frederick, Md. Male mice 6 weeks old or older weighing 22 g or more were used for experiments with subcutaneous tumor inoculation as described previously.^67 Drug was administrated via the tail vein by iv injection. Tumor volumes were assessed by measuring length×width×height (or width) by using caliper. Vehicle used was 20 μL DMSO in 180 μL saline. All animal studies were conducted in accordance with the guidelines of the U.S. National Institutes of Health Guide for the Care and Use of Animals and the protocol approved by the Institutional Animal Care and Use Committee.

SMILES | IC50 [1] [nM] | IC50 [2] [nM] | IC50 [3] [nM] | IC50 (CCRF-CEM/Taxol) [nM] | Therapeutic effect: complete tumor remission (CR), mice with CR/total and day [4] | Maximal body-weight loss (%) [4] | Therapeutic effect: tumor relapse [4] | Remark (dose tolerability) [4]
O=C(Nc1ccc(N(CCCl)CCCl)cc1)Nc1c2ccccc2nc2ccccc12 [BO-1034, 1-acridin-9-yl-3-{4-[bis(2-chloroethyl)amino]phenyl}urea] | 230 | 900 | 810 | 390 |  |  |  | 
O=C(Nc1ccc(N(CCCl)CCCl)cc1)Nc1cc(CO)cc(Nc2c3ccccc3nc3ccccc23)c1 [BO-1037, 1-[3-(acridin-9-ylamino)-5-hydroxymethylphenyl]-3-{4-[bis(2-chloroethyl)amino]phenyl}urea] | 60 | 220 | 370 | 17100 | achieved CR in parts of the mice and 2/3 CR on D23, 25 | 12% | 2/3 relapsed on D40, 40 | 
Cc1cccc2c(Nc3cc(CO)cc(NC(=O)Nc4ccc(N(CCCl)CCCl)cc4)c3)c3ccccc3nc12 [BO-1050, 1-{4-[bis(2-chloroethyl)amino]phenyl}-3-[3-hydroxymethyl-5-(4-methylacridin-9-ylamino)phenyl]urea] |  | 260 | 120 | 390 | achieved CR in parts of the mice and 2/2 CR on D16, 18 | 9% | No relapse on D26 | 
Cc1ccc(NC(=O)Nc2ccc(N(CCCl)CCCl)cc2)cc1Nc1c2cccc(C)c2nc2c(C(=O)NCCN(C)C)cccc12 [BO-1053, 9-[5-(3-{4-[bis(2-chloroethyl)amino]phenyl}ureido)-2-methyl-phenylamino]-5-methyl-acridine-4-carboxylic acid (2-dimethylaminoethyl)amide] | 10 | 60 | 60 | 180 | achieved complete tumor remission |  |  | Too high dose
O=C(Nc1cc(CO)cc(Nc2c3ccccc3nc3ccccc23)c1)Oc1ccc(N(CCCl)CCCl)cc1 [BO-1062, [3-(acridin-9-ylamino)-5-hydroxymethylphenyl]carbamic acid 4-[bis(2-chloroethyl)amino]phenyl ester] | 80 | 570 | 100 | 140 | achieved complete tumor remission and 1/1 CR on D22 | 17% |  | 
Cc1cccc2c(Nc3cc(CO)cc(NC(=O)Oc4ccc(N(CCCl)CCCl)cc4)c3)c3ccccc3nc12 [BO-1063, [3-hydroxymethyl-5-(4-methylacridin-9-ylamino)phenyl]carbamic acid 4-[bis(2-chloroethyl)-amino]phenyl ester] | 70 | 440 | 80 | 100 |  |  |  | Too high dose
Cc1ccc(Nc2c3ccccc3nc3c(C)cccc23)cc1NC(=O)Oc1ccc(N(CCCl)CCCl)cc1 [BO-1064, [2-methyl-5-(4-methylacridin-9-ylamino)phenyl]-carbamic acid 4-[bis(2-chloroethyl)amino]phenyl ester] | 130 | 610 | 290 | 170 | achieved complete tumor remission and 1/1 CR on D22 | Died of |  | 
CCOC(=O)Nc1cc(COC(=O)Oc2ccc(N(CCCl)CCCl)cc2)cc(Nc2c3ccccc3nc3ccccc23)c1 [BO-1065, carbonic acid 3-(acridin-9-yl-amino)-5-ethoxycarbonylaminobenzyl ester 4-[bis(2-chloroethyl)amino]phenyl ester] |  | 640 | 90 | 510 |  |  |  | Too high dose
COc1ccc(Nc2c3ccccc3nc3ccccc23)cc1NC(=O)Nc1ccc(N(CCCl)CCCl)cc1 [BO-1148] | 10 | 260 | 1200 | 30 |  |  |  | 
Cc1ccc(NC(=O)Nc2ccc(N(CCCl)CCCl)cc2)cc1Nc1c2ccccc2nc2c(C)cccc12 [BO-1149] | 10 | 160 | 590 | 20 |  |  |  | 
COc1ccc(Nc2c3ccccc3nc3c(C)cccc23)cc1NC(=O)Nc1ccc(N(CCCl)CCCl)cc1 [BO-1154] | 10 | 70 | 370 | 10 |  |  |  | 
Cc1ccc(Nc2c3ccccc3nc3ccccc23)cc1NC(=O)Oc1ccc(N(CCCl)CCCl)cc1 [BO-1171] | 80 | 430 | 210 | 220 |  |  |  | 
COc1ccc(Nc2c3ccccc3nc3ccccc23)cc1NC(=O)Oc1ccc(N(CCCl)CCCl)cc1 [BO-1172] | 90 | 190 | 180 | 160 |  |  |  | 
COc1ccc(Nc2c3ccccc3nc3c(C)cccc23)cc1NC(=O)Oc1ccc(N(CCCl)CCCl)cc1 [BO-1213] | 20 |  | 140 | 30 |  |  |  | 
COc1ccc2nc(C)cc(NNC(=O)Nc3ccc(N(CCCl)CCCl)cc3)c2c1 [BO-1228, N-{4-[bis(2-chloroethyl)amino]phenyl}-2-(6-methoxy-2-methyl-4-quinolinyl)hydrazinecarboxamide] | 200 | 260 | 260 | 1540 |  |  |  | 
Cc1cc(NC(=O)Nc2ccc(N(CCCl)CCCl)cc2)c2cc(N(C)C)ccc2n1 [BO-1231] | 110 | 300 | 180 | 310 |  |  |  | 
Cc1cc(NNC(=O)Nc2ccc(N(CCCl)CCCl)cc2)c2ccccc2n1 [BO-1233, N-{4-[bis(2-chloroethyl)amino]phenyl}-2-(2-methyl-4-quinolinyl)hydrazinecarboxamide] | 120 | 380 | 360 | 1830 |  |  |  | 
Cc1cc(NNC(=O)Nc2ccc(N(CCCl)CCCl)cc2)c2cc(N(C)C)ccc2n1 [BO-1242] | 60 | 150 | 280 | 4190 |  |  |  | 
O=C(NNc1cc(-c2ccccc2)nc2cc3c(cc12)OCO3)Nc1ccc(N(CCCl)CCCl)cc1 [BO-1391] | 260 | 2020 | 1020 | 570 |  |  |  | 
O=C(NNc1cc(-c2ccccc2)nc2ccccc12)Nc1ccc(N(CCCl)CCCl)cc1 [BO-1393] | 580 | 1260 | 1780 | 910 |  |  |  | 
O=C(Nc1ccc(Nc2cc(-c3ccccc3)nc3ccccc23)cc1)Nc1ccc(N(CCCl)CCCl)cc1 [BO-2294] | 3010 |  |  |  |  |  |  | 
O=C(Nc1ccc(N(CCCl)CCCl)cc1)Nc1cccc(Nc2cc(-c3ccccc3)nc3ccccc23)c1 [BO-2295] | 1860 |  |  |  |  |  |  | 
CC(=O)O[C@H]1C(=O)[C@@]2(C)[C@H]([C@H](OC(=O)c3ccccc3)[C@]3(O)C[C@H](OC(=O)[C@H](O)[C@@H](NC(=O)c4ccccc4)c4ccccc4)C(C)=C1C3(C)C)[C@]1(OC(C)=O)CO[C@@H]1C[C@@H]2O [Taxol, reference compound] |  |  | 40 | 430 |  |  |  | 
CC[C@]1(O)C[C@@H]2CN(CCc3c([nH]c4ccccc34)[C@@](C(=O)OC)(c3cc4c(cc3OC)N(C)[C@H]3[C@@](O)(C(=O)OC)[C@H](OC(C)=O)[C@]5(CC)C=CCN6CC[C@]43[C@@H]65)C2)C1 [Vinblastine, reference compound] |  |  |  | 80 |  |  |  | 
